Measurements taken from patent EP3828160A1, “TREPROSTINIL DERIVATIVE COMPOUNDS AND METHODS OF USING SAME” (Corsair Pharma, Inc., priority 2014, dated 2016).

Experiments:
[1] = Human liver microsomal stability assay (Test 1); type: in vitro ADME; details: liver microsomes, 0.5 uM test compound, 37°C, up to 45 minutes, 0.5 mg microsomal protein, NADPH generating system, pH 7.4, read-out: Test 1 T1/2
Protocol: (§1) Four assays on compounds were carried out by the following methods with the results shown in Table I. • (Test 1) Human liver microsomal stability assay was conducted by incubating 0.5 uM test compounds at 37°C for up to 45 minutes in 50 mM of potassium phosphate buffer (pH 7.4) containing 0.5 mg of microsomal protein and 50 µL of NADPH generating system (7.8 mg of glucose 6-phosphate, 1.7 mg of NADPH and 6 U of glucose 6-phosphate dehydrogenase per mL in 2% w/v of sodium bicarbonate). At 0, 5, 15, 30 and 45 min., an aliquot was taken, quenched with internal standard containing stop solution. No co-factor controls at 45 minutes were also prepared. After incubation, the samples were analyzed by LC-MS/MS. Peak area ratios of analyte to internal standard were used to calculate the intrinsic clearance. The intrinsic clearance (CLint) was determined from the first order elimination constant by non-linear regression. Formation of the active drug Compound A over the time course was also monitored by LC-MS/MS analysis. • (Test 2) Human plasma stability assay was conducted by incubating 0.5 uM test compounds at 37°C for up to 120 minutes in heparinated human plasma. At 0, 5, 15, 30, 60 and 120 […] min., an aliquot was taken, quenched with internal standard containing stop solution. After incubation, the samples were analyzed by LC-MS/MS. Peak area ratios of analyte to internal standard were used to calculate the half-life. Formation of the active drug Compound A over the time course was also monitored by LC-MS/MS analysis. • (Test 3) Human skin homogenate stability assay was conducted in a similar way as the human liver microsomal stability assay, by incubating 0.5 uM test compounds at 37°C for up to 45 minutes in 50 mM of potassium phosphate buffer (pH 7.4) containing 0.5 mg of human skin homogenate protein and 50 µL of NADPH generating system (7.8 mg of glucose 6-phosphate, 1.7 mg of NADPH and 6 U of glucose 6-phosphate dehydrogenase per mL in 2% w/v of sodium bicarbonate). At 0, 5, 15, 30 and 45 min., an aliquot was taken, quenched with internal standard containing stop solution. No co-factor controls at 45 minutes were also prepared. After incubation, the samples were analyzed by LC-MS/MS. Peak area ratios of analyte to internal standard were used to calculate the intrinsic clearance. The intrinsic clearance (CLint) was determined from the first order elimination constant by non-linear regression. Formation of the active drug Compound A over the time course was also monitored by LC-MS/MS analysis. • (Test 4) Human hepatocyte stability assay was conducted by incubating 0.5 uM test compound at 37°C for up to 240 minutes. Cryopreserved human hepatocytes were obtained from Celsis IVT (Baltimore, Maryland). Cells were thawed according to vendor's instructions and were suspended in William's Medium E to 0.5 million cells/mL. Test compounds were spiked into the cell suspension to initiate the reactions. At 0, 10,30,60, 120 and 240 min., an aliquot was taken, quenched with internal standard containing stop solution. After incubation, the samples were analyzed by LC-MS/MS. Peak area ratios of analyte to internal standard were used to calculate the intrinsic clearance. The intrinsic clearance (CLint) was determined from the first order elimination constant by non-linear regression. Formation of the active drug Compound A over the time course was also monitored by LC-MS/MS analysis.

[2] = Human hepatocyte stability assay (Test 4); type: in vitro ADME; details: cryopreserved hepatocytes, 0.5 uM test compound, 37°C, up to 240 minutes, 0.5 million cells/mL in William's Medium E, read-out: Test 4 T1/2
Protocol: as §1

[3] = Human plasma stability assay (Test 2); type: in vitro ADME; details: 0.5 uM test compound, 37°C, up to 120 minutes, heparinated human plasma, read-out: Test 2 T1/2
Protocol: as §1

[4] = Human skin homogenate stability assay (Test 3); type: in vitro ADME; details: 0.5 uM test compound, 37°C, up to 45 minutes, 0.5 mg human skin homogenate protein, NADPH generating system, pH 7.4, read-out: Test 3 T1/2
Protocol: as §1

[5] = treprostinil as the free acid, cited from earlier work

SMILES | half-life at 0.5 uM [1] | half-life at 0.5 uM [2] | half-life at 0.5 uM [3] | half-life at 0.5 uM [4] | absolute oral bioavailability ([5]; oral) | systemic half life ([5]; due to significant metabolism)
CCCCCC(O)CCC1C(O)CC2Cc3c(cccc3OCC(=O)NCC3CC3)CC21 (stereo not drawn) [Compound 2, N-Cyclopropylmethyl-2-[2-hydroxy-1-(3-hydroxy-octyl)-2,3,3a,4,9,9a-hexahydro-1H-cyclopenta[b]naphthalen-5-yloxy]-acetamide] | < 15 min | 31 to 60 min | > 60 min | – | – | –
CCCCCC(O)CCC1C(O)CC2Cc3c(cccc3OCC(=O)NCC(F)(F)F)CC21 (stereo not drawn) [Compound 14, 2-[2-Hydroxy-1-(3-hydroxy-octyl)-2,3,3a,4,9,9a-hexahydro-1H-cyclopenta[b]naphthalen-5-yloxy]-N-(2,2,2-trifluoro-ethyl)-acetamide] | < 15 min | < 15 min | > 60 min | > 60 min | – | –
CCCCC[C@H](O)CC[C@@H]1[C@H]2Cc3cccc(OCC(=O)O)c3C[C@H]2C[C@H]1O [treprostinil] | – | – | – | – | less than 10% | very short
CCCCCC(O)CCC1C(O)CC2Cc3c(cccc3OCC(=O)NCCO)CC21 (stereo not drawn) [Compound 7, N-(2-Hydroxy-ethyl)-2-[2-hydroxy-1-(3-hydroxy-octyl)-2,3,3a,4,9,9a-hexahydro-1H-cyclopenta[b]naphthalen-5-yloxy]-acetamide] | 15 to 30 min | 15 to 30 min | > 60 min | – | – | –
CCCCCC(O)CCC1C(O)CC2Cc3c(cccc3OCC(=O)N(C)CC(=O)OC)CC21 (stereo not drawn) [Compound 13, ({2-[2-Hydroxy-1-(3-hydroxy-octyl)-2,3,3a,4,9,9a-hexahydro-1H-cyclopenta[b]naphthalen-5-yloxy]-acetyl}-methyl-amino)-acetic acid methyl ester] | < 15 min | < 15 min | > 60 min | – | – | –
CCCCCC(O)CCC1C(O)CC2Cc3c(cccc3OCC(=O)OC(C)C(C)C)CC21 (stereo not drawn) [Compound 17, [2-Hydroxy-1-(3-hydroxy-octyl)-2,3,3a,4,9,9a-hexahydro-1H-cyclopenta[b]naphthalen-5-yloxy]-acetic acid 1,2-dimethyl-propyl ester] | < 15 min | – | 31 to 60 min | 15 to 30 min | – | –
CCCCC[C@H](O)CC[C@@H]1[C@H]2Cc3cccc4c3C[C@H]2C[C@H]1OC(=O)CO4 [Compound 57, Treprostinil 2-hydroxy lactone] | > 60 min | > 60 min | > 60 min | – | – | –
